# Data as given in US20190381017A1, “Compositions Comprising Serdexmethylphenidate Conjugates And Methods Of Use Thereof” (KemPharm, Inc., priority 2018, published 2019).
# Where a name gives a salt, the structure may show the parent alone. Marks after values point to notes of the source that are not given here.
# Assays:
# [1] = tested on: healthy, nondependent, recreational stimulant users; experiment: Oral abuse potential, VAS pharmacodynamic scores (Example 4); details: phentermine HCl 60 mg
# [2] = tested on: recreational stimulant users; experiment: Treatment-emergent adverse events, intravenous study (Example 2)
# Method: A study was conducted in humans to assess the intravenous abuse potential of serdexmethylphenidate relative to unconjugated d-methylphenidate and placebo in recreational stimulant abusers. This was a Phase 1, randomized, double-blind study in which serdexmethylphenidate and d-methylphenidate were administered intravenously in recreational stimulant users with a history of non-oral abuse. In Part A of the study, subjects (Cohort 1) participated in a dose-escalation phase to determine the optimal dose of intravenous d-methylphenidate based on tolerability and abuse-related pharmacodynamic assessments. […] The doses of serdexmethylphenidate and d-methylphenidate are equivalent with respect to molar amount of d-methylphenidate. FDA-recommended abuse potential measures and blood samples were collected at different times after dosing. Safety assessments were performed throughout the study.
# [3] = tested on: recreational stimulant users; experiment: Intravenous abuse potential, VAS pharmacodynamic scores (Example 2); format: in vivo, human; details: SDX Cl 30 mg, d-MPH HCl 15 mg, bipolar VAS
# Excerpt: “Drug liking” score, used herein, is the score used to assess the degree that a human participant likes a drug effect at the time the question is being asked (that is, at the moment). It is scored using a 0 to 100 point bipolar visual analogue scale (VAS) anchored in the center with a neutral anchor of “neither like nor dislike” (score of 50), on the left with “strong disliking” (score of 0) and on the right with “strong liking” (score of 100).
# “Euphoria” or “Feeling High” score, used herein, is the term to describe the score used to assess the degree that a human participant is high at the time the question is being asked (that is, at the moment). It is scored using a 0 to 100 point unipolar visual analogue scale (VAS) anchored on the left with “Not at All” (score of 0) and on the right with “Extremely” (score of 100).
# “Take Drug Again” score, used herein, is the term to describe the score used to assess the degree that a human participant wants to take the drug again, if given the opportunity, based on his/her opinion now, i.e., at the time the question is being asked. It is scored using a 0 to 100 point unipolar visual analogue scale (VAS) anchored on the left with “Definitely Would Not” (score of 0) and on the right with “Definitely Would” (score of 100).
# “Overall Drug Liking” score, used herein, is the term to describe the score used to assess the human subject's global perception of drug liking (i.e., the subjective effects over the whole course of the drug experience including any carryover effects). Subjects respond to the statement “Overall, my liking for this drug is.” The question is scored using a 0-100 point bipolar VAS anchored on the left with “Strong Disliking” (score of 0); “Neither Like nor Dislike” (score of 50) in the middle, and anchored on the right with “Strong Liking” (score of 100). This scale has the advantage of the human subject being relatively less affected or unaffected by acute study drug effects (if any) by the time of the assessment.
# “Good Effects” score, used herein, is the term to describe the score used to assess the degree that a human participant is feeling good drug effects at the time the question is being asked (that is, at the moment). Subjects respond to the statement “At this moment, I can feel good drug effects.” It is scored using a 0 to 100 point unipolar visual analogue scale (VAS) anchored on the left with “Not at All” (score of 0) and on the right with “Extremely” (score of 100).
# Safety assessments were performed throughout the study.
# [4] = SDX Cl 120 mg, Focalin XR 80 mg
# [5] = SDX Cl 120 mg, Focalin XR 80 mg, bipolar VAS
# [6] = SDX Cl 120 mg, Focalin XR 80 mg, unipolar VAS
smiles,measurement,setting,value
"CC(C)(N)Cc1ccccc1 [phentermine hydrochloride, reference compound]",Mean difference Any Effects Emax vs SDX Cl 120 mg,[1]; Focalin XR 80 mg,37.4
same,Mean difference Any Effects Emax vs SDX Cl 240 mg,[1]; Focalin XR 80 mg,28.0
same,Mean difference Bad Effects Emax vs SDX Cl 120 mg,[1]; Focalin XR 80 mg,11.9
same,Mean difference Bad Effects Emax vs SDX Cl 240 mg,[1]; Focalin XR 80 mg,4.6
same,Mean difference Drug Liking Emax vs SDX Cl 120 mg,[1]; Focalin XR 80 mg,15.5
same,Mean difference Drug Liking Emax vs SDX Cl 240 mg,[1]; Focalin XR 80 mg,14.0
same,Mean difference Feeling Alert/Drowsy Emax vs SDX Cl 120 mg,[1]; Focalin XR 80 mg,15.7
same,Mean difference Feeling Alert/Drowsy Emax vs SDX Cl 240 mg,[1]; Focalin XR 80 mg,12.2
same,Mean difference Feeling High Emax vs SDX Cl 120 mg,[1]; Focalin XR 80 mg,36.0
same,Mean difference Feeling High Emax vs SDX Cl 240 mg,[1]; Focalin XR 80 mg,27.7
same,Mean difference Good Effects Emax vs SDX Cl 120 mg,[1]; Focalin XR 80 mg,35.5
same,Mean difference Good Effects Emax vs SDX Cl 240 mg,[1]; Focalin XR 80 mg,30.2
same,Mean difference Overall Drug Liking Emax vs SDX Cl 120 mg,[1]; Focalin XR 80 mg,14.9
same,Mean difference Overall Drug Liking Emax vs SDX Cl 240 mg,[1]; Focalin XR 80 mg,15.3
same,Mean difference Take Drug Again Emax vs SDX Cl 120 mg,[1]; Focalin XR 80 mg,14.9
same,Mean difference Take Drug Again Emax vs SDX Cl 240 mg,[1]; Focalin XR 80 mg,15.4
same,Mean difference Any Effects Emax vs placebo,[1]; [4],48.5
same,Mean difference Drug Liking Emax vs placebo,[1]; [4],22.3
same,Mean difference Feeling Alert/Drowsy Emax vs placebo,[1]; [4],23.5
same,Mean difference Feeling High Emax vs placebo,[1]; [4],46.4
same,Mean difference Good Effects Emax vs placebo,[1]; [4],47.6
same,Mean difference Overall Drug Liking Emax vs placebo,[1]; [4],18.6
same,Mean difference Take Drug Again Emax vs placebo,[1]; [4],17.1
same,Drug Liking Emax (mean),[1]; [5],80.2
same,Drug Liking Emax (median),[1]; [5],84.0
same,Feeling Alert/Drowsy Emax (mean),[1]; [5],81.4
same,Feeling Alert/Drowsy Emax (median),[1]; [5],84.0
same,Overall Drug Liking Emax (mean),[1]; [5],73.4
same,Overall Drug Liking Emax (median),[1]; [5],77.0
same,Take Drug Again Emax (mean),[1]; [5],72.3
same,Take Drug Again Emax (median),[1]; [5],75.0
same,Any Effects Emax (mean),[1]; [6],69.2
same,Any Effects Emax (median),[1]; [6],74.0
same,Bad Effects Emax (mean),[1]; [6],17.9
same,Bad Effects Emax (median),[1]; [6],7.0
same,Feeling High Emax (mean),[1]; [6],65.3
same,Feeling High Emax (median),[1]; [6],76.0
same,Good Effects Emax (mean),[1]; [6],66.2
same,Good Effects Emax (median),[1]; [6],75.0
same,Median difference Bad Effects Emax vs placebo,[1],8.0^c
"COC(=O)[C@H](c1ccccc1)[C@H]1CCCCN1 [d-methylphenidate, methyl (R)-2-phenyl-2-((R)-piperidin-2-yl)acetate, reference compound]","typical stimulant-related Adverse Events (euphoric mood, hypervigilance, increased heart rate), frequency vs serdexmethylphenidate",[2],more common
same,Drug Liking Emax (mean),[3],84.3
COC(=O)[C@H](c1ccccc1)[C@H]1CCCCN1C(=O)OC[n+]1cccc(C(=O)N[C@@H](CO)C(=O)O)c1 [serdexmethylphenidate],Drug Liking Emax (mean),[3],56.6
